# Experimental data taken from patent publication US20110044991A1, “METHODS AND COMPOSITIONS FOR TREATING LYMPHOMA AND MYELOMA” (IRM LLC, priority 2006, published 2011).
# Where two headings read alike, the source gives them in different places.
# How the values were obtained:
# [1] = tested on: lymphoma cells; test: Cell cycle distribution of gated viable cells; assay type: cell-based, mouse; details: after 12 hours of treatment; 20.4% before
# [2] = tested on: Myc lymphoma cells (p53−/−, Cdkn2a−/−, Bcl2+, Bax−/−, Caspase3−/−); details: for apoptosis: 5 μM, 48 hours
# Source text: Genetically altered mice and culture of primary cells: Eμ-Myc mice (Adams et al., Nature 318: 533-53824, 1985), Cdkna^−/− mice (Serrano et al., Cell. 85:27-3725, 1996), Bax^−/− mice (The Jackson Laboratory, Bar Harbor, Me.), Caspase3^−/− mice (The Jackson laboratory), p53^−/− mice (The Jackson Laboratory) and Bcl2 tg mice (The Jackson laboratory) were maintained and genotyped as described. Eμ-Myc mice and Cdkn2a−/− mice were monitored for signs of disease including development of visible lymphomas or weight loss from more than 15%. Mice with terminal disease were sacrificed, bone marrow, spleen and lymph nodes were extracted and lymphoma cells were propagated under Witlock/Witte culture conditions. For maintained growth cells were transferred on bone marrow stroma from Cdkn2a−/− mice after 2-3 weeks of culture. For generation of lymphomas with defined genetic background, bone marrow from p53−/− mice, Caspase3−/− mice, Bax−/− mice, Cdkn2a−/− mice and Bcl2 tg mice was extracted and pMSCV c-Myc IRES GFP was overexpressed. Propagation of transformed lymphocytes was performed under Witlick/Witte culture conditions and lymphomas were maintained on stroma from Cdkn2a−/− mice.
# To better understand which specific pathways are involved in the regulation of growth and survival through Hh signalling in lymphoma cells, lymphoma cell cultures were generated in multiple different genetic backgrounds in order to modify either apoptotic or failsafe pathways. Bone marrow extracted from wt C57BL/6, Bcl2 transgenic, Bax^−/− Caspase-3^−/−, CDKN2a^−/− and p53^−/− mice was infected with pMSCV-Myc-GFP and transformed lymphocyte cultures were obtained using Whitlock/Witte culture conditions in the absence of IL-7. […] Similar to cultures established from primary lymphomas, lymphocytes transformed by retroviral transduction were transferred to bone marrow stroma of CDKN2a^−/− mice for longer term culture.
# [3] = tested on: Myc-Ly6 cells overexpressing Smo, Smo535, Smo562, Gli1 or Fused; test: Luciferase assay with lymphoma cells overexpressing Hh pathway members on stromal layer; assay type: cell-based, mouse; details: for IC50: Mus musculus, 48 h
# Procedure: (§1) For Shh pathway inhibition on stroma, 6200 stroma cells were seeded per 96-well. After 24 hours 20,000 luciferased lymphoma cells were seeded on the stroma cells and 2 hours later compound or DMSO was added. Luciferase assay was performed with Bright-glow reagent as described. To generate cells overexpressing Hh pathway members, lymphoma cells were infected with Smo, Smo 535, Smo 562, Gli1 and Fused-pMSCV IRES GFP constructs and then sorted for GFP positive cells.
# [4] = tested on: Eμ-Myc lymphoma cells; test: Luciferased lymphoma cells injected into C57BL/6 mice, treatment from day 2; assay type: in vivo, mouse
# Procedure: D: injection of 1 Mio luciferased lymphoma cells in C57B16 mice.
# Mouse experiments: Black6 mice between 6 and 8 weeks of age were injected with 1 Mio luciferased lymphoma cells. […] Bioluminescence was measured with injection of […].
# In order to verify the importance of the Hh pathway for lymphoma growth and expansion in mice, we injected 1e6 lymphoma cells expressing luciferase into syngeneic C57BL/6 mice. […] Luciferase levels were measured by bioluminescence imaging twice a week.
# [5] = tested on: Eμ-Myc lymphoma cells; test: Shh-induced proliferation of lymphoma cells without stromal layer, Alamar Blue assay; assay type: cell-based, mouse; details: Shh 10 μM over 48 h; 5E1 10 μg/ml, cyclopamine 5 μM
# Procedure: Luminescence was measured after 0 h, 24 h and 48 h after seeding of 2×10E4 luciferased lymphoma cells on the stroma cells; and F: RT-PCR analysis of transcripts from Hh pathway members and targets in spleen lymphocytes and different lymphoma cell lines.
# Cell culture experiments: Lymphoma cells were infected with a retrovirus containing a pMSCV IRES puro-luc sequence and selected for 7 days with puromycin on puromycin-resistant Cdkn2a−/− stroma. […] Both were dissolved as x 1,000 stocks in DMSO. SCF was obtained from RDI, and all other cytokines were obtained from R&D systems. 5E1 anti-ShhN monoclonal antibody was obtained from the developmental hybridoma bank and was used at a concentration of 10 μg/ml. For cytokine stimulation and Shh inhibition in supernatant lymphoma cells were seeded into 96-well plates at a density of 20,000 cells per well and mitochondrial activity of viable cells was measured with an Alamar Blue Assay as described.
# [6] = tested on: Cdkn2a−/− lymphoma cells; test: Luciferase assay of luciferased lymphoma cells on stromal layer; assay type: cell-based, mouse; details: for Response rate to cyclopamine treatment (responsive/tested cultures) / Response rate to cyclopamine treatment: Ink4a/Arf-/- lymphomas; for Response rate to cyclopamine treatment: >80% growth inhibition at 5 μM
# Procedure: as §1
# (§2) In order to investigate whether the Hh signalling pathway does indeed contribute to the survival and proliferation of lymphoma cells growing on an intact stromal layer, lymphoma cells were luciferased using a retrovirus expressing a puromycin/Luc fusion cassette. 2×10E4 lymphoma cells constitutively expressing luciferase were added to each 96-well containing a stromal layer (not expressing luciferase) isolated from Cdkn2a^−/− mice. A total of 34 individual Eμ-Myc-lymphomas and 8 Cdkn2a-lymphomas were tested. A luciferase assay was performed as a readout for cell viability and proliferation and results were also documented by light microscopy.
# [7] = tested on: Eμ-Myc lymphoma cells; test: Luciferase assay and light microscopy of luciferased lymphoma cells on stromal layer; assay type: cell-based, mouse; details: for Response rate to cyclopamine treatment (responsive/tested cultures) / Response rate to cyclopamine treatment: Myc-lymphomas; for Response rate to cyclopamine treatment: >80% growth inhibition at 5 μM
# Procedure: as §1, §2
# [8] = tested on: lymphoma cells; test: Annexin V staining, flow cytometry; assay type: cell-based, mouse; details: 5 μM
smiles,measurement,setting,value
CC1=C2C[C@H]3[C@@H](CC=C4C[C@@H](O)CC[C@@]43C)[C@@H]2CC[C@]12O[C@@H]1C[C@H](C)CN[C@H]1[C@H]2C [cyclopamine],G2/M phase of remaining viable cells,[1],13.3%
same,cyclopamine induced apoptosis,[2]; Myc/Bax−/− cells,partial resistance
same,cyclopamine induced apoptosis,[2]; Myc/Caspase 3−/− cells,partial resistance
same,apoptosis,[2]; Myc/Cdkn2a−/− lymphoma cells,induced apoptosis
same,apoptosis,[2]; Myc/p53−/− lymphoma cells,induced apoptosis
same,IC50,[3]; cyclopamine sensitive lymphoma cell lines without overexpression,1 µM
same,IC50,[3]; overexpression of Fused,> 10 µM
same,IC50,[3]; overexpression of Gli1,> 10 µM
same,IC50,[3]; overexpression of Smo A562G,4.5 µM
same,IC50,[3]; overexpression of Smo W535L,3.5 µM
same,IC50,[3]; overexpression of Smo wt,3 µM
same,apoptosis induction by cyclopamine,[3]; overexpression of Fused,nearly complete inhibition of apoptosis induction
same,response of Myc-Ly6 to cyclopamine treatment,[3]; overexpression of Gli1,partial resistance
same,median survival,"[4]; 25 mg/kg/day s.c., max 21 days, control group 16 days",20 days
same,signs of disease (bioluminescence imaging),"[4]; 50 and 100 mg/kg/day s.c. from day 2, twelve days post-injection",only minimal signs of disease
same,response (survival curves),"[4]; lymphoma with in vitro resistance and overexpression of Gli3, 100 mg/kg/day",only minimal response
same,response in vivo,"[4]; two additional lymphoma cells (1 plasmoblastoma and 1 B-cell lymphoma), similar conditions",responsive in vivo
same,inhibition of Shh-induced proliferation,[5],inhibited
same,Response rate to cyclopamine treatment (responsive/tested cultures),[6]; plasmacytoma,(2/4)
same,Response rate to cyclopamine treatment,[6]; plasmacytoma,50%
same,Response rate to cyclopamine treatment (responsive/tested cultures),[6]; plasmoblastoma,(2/4)
same,Response rate to cyclopamine treatment,[6]; plasmoblastoma,50%
same,lymphomas sensitive to Hh pathway inhibition,"[6]; all lymphomas from CDKN2a−/− mice, sensitivity = greater than 80% growth inhibition at 5 μM",50%
same,IC50,"[7]; Mus musculus, 48 h, read-out: IC50 (concentration needed for 50% of maximal inhibition)",0.5 to 2 µM
same,clearance of lymphoma cells from the stromal layer,"[7]; Myc-Ly4, 5 μM, within 48 h",complete clearance
same,Response rate to cyclopamine treatment (responsive/tested cultures),[7]; B-cell lymphoma,8/10 and (8/10)
same,Response rate to cyclopamine treatment (responsive/tested cultures),[7]; mixed lymphomas,1/2
same,Response rate to cyclopamine treatment,[7]; mixed lymphomas,50%
same,Response rate to cyclopamine treatment (responsive/tested cultures),[7]; plasmacytoma,6/9
same,Response rate to cyclopamine treatment,[7]; plasmacytoma,66%
same,Response rate to cyclopamine treatment (responsive/tested cultures),[7]; plasmoblastoma,8/10 and (8/10)
same,Response rate to cyclopamine treatment,[7]; plasmoblastoma,80%
same,lymphomas sensitive to Hh pathway inhibition,"[7]; all Eμ-Myc-lymphomas, sensitivity = greater than 80% growth inhibition at 5 μM",74.1%
same,apoptotic cells (annexin V),[8]; after 48 hours,~100%
same,apoptotic cells (annexin V),[8]; within 12 hours,more than 50%
